Like-named read-outs stand apart in the source and are kept apart here.
Tests used:
Assay type in all cases: in vivo
[1] = test system: Alternaria solani; assay: Alternaria test (tomatoes)/preventive
Protocol: (§1) Solvent: 24.5 parts by weight of acetone • 24.5 parts by weight of dimethylacetamide
(§2) Emulsifier: 1 part by weight of alkylaryl polyglycol ether
(§3) To produce a suitable preparation of active compound, 1 part by weight of active compound is mixed with the stated amounts of solvent and emulsifier, and the concentrate is diluted with water to the desired concentration.
(§4) To test for preventive activity, young plants are sprayed with the preparation of active compound at the stated rate of application. After the spray coating has dried on, the plants are inoculated with an aqueous spore suspension of Alternaria solani. The plants are then placed in an incubation cabinet at approximately 20° C. and a relative atmospheric humidity of 100%.
The test is evaluated 3 days after the inoculation. 0% means an efficacy which corresponds to that of the untreated control while an efficacy of 100% means that no disease is observed.

[2] = test system: Blumeria graminis f.sp. hordei; assay: Blumeria test (barley)/preventive; settings: Table B1
Protocol: (§5) Solvent: 49 parts by weight of N,N-dimethylacetamide Emulsifier: 1 part by weight of alkylaryl polyglycol ether To produce a suitable preparation of active compound, 1 part by weight of active compound or active compound combination is mixed with the stated amounts of solvent and emulsifier, and the concentrate is diluted with water to the desired concentration. To test for preventive activity, young plants are sprayed with the preparation of active compound or active compound combination at the stated rate of application. After the spray coating has been dried, the plants are dusted with spores of Blumeria graminis f.sp. hordei.

[3] = test system: Phakopsora pachyrhizi; assay: Phakopsora test (soybeans)/preventive; settings: for pest or weed control at 1 ppm: Table D2, application rate 1 ppm a.i.
[4] = test system: Pyrenophora teres; assay: Pyrenophora teres-test (barley)/preventive; settings: Table E1
Protocol: Solvent: 49 parts by weight of N,N-dimethylacetamide
as §2
To produce a suitable preparation of active compound, 1 part by weight of active compound or active compound combination is mixed with the stated amounts of solvent and emulsifier, and the concentrate is diluted with water to the desired concentration.
To test for preventive activity, young plants are sprayed with the preparation of active compound or active compound combination at the stated rate of application.
After the spray coating has been dried, the plants are sprayed with a spore suspension of Pyrenophora teres. The plants remain for 48 hours in an incubation cabinet at approximately 20° C. and a relative atmospheric humidity of approximately 100%.
The plants are placed in the greenhouse at a temperature of approximately 20° C. and a relative atmospheric humidity of approximately 80%.
The test is evaluated 8 days after the inoculation. 0% means an efficacy which corresponds to that of the untreated control, while an efficacy of 100% means that no disease is observed.

[5] = test system: Leptosphaeria nodorum; assay: Leptosphaeria nodorum test (wheat)/preventive; settings: Table C1
Protocol: as §5, with “sprayed” for “dusted”, “a spore suspension” for “spores”, “Leptosphaeria nodorum.” for “Blumeria graminis f.sp. hordei.”

[6] = test system: Uromyces appendiculatus; assay: Uromyces test (beans)/preventive; settings: for pest or weed control at 2 ppm: application rate 2 ppm a.i.
Protocol: as §1, §2, §3
as §4, with “the causal agent of bean rust (Uromyces appendiculatus) and” for “Alternaria solani. The plants are”, “remain for 1 day” for “placed”
The plants are then placed in a greenhouse at approximately 21° C. and a relative atmospheric humidity of approximately 90%.
The test is evaluated 10 days after the inoculation. 0% means an efficacy which corresponds to that of the untreated control, while an efficacy of 100% means that no disease is observed.

[7] = test system: Septoria tritici; assay: Septoria tritici-test (wheat)/preventive; settings: Table F1
Protocol: as §5, with “sprayed” for “dusted”, “a spore suspension” for “spores”, “Septoria tritici.” for “Blumeria graminis f.sp. hordei.”

[8] = test system: Venturia inaequalis; assay: Venturia test (apples)/preventive; settings: Table I1
Protocol: Solvent: 24.5 parts by weight of acetone • 24.5 parts by weight of dimethylacetamide Emulsifier: 1 part by weight of alkylaryl polyglycol ether To produce a suitable preparation of active compound, 1 part by weight of active compound is mixed with the stated amounts of solvent and emulsifier, and the concentrate is diluted with water to the desired concentration. To test for preventive activity, young plants are sprayed with the preparation of active compound at the stated rate of application.

[9] = Table A1, application rate 0.5 ppm a.i.
[10] = Table D1, application rate 0.5 ppm a.i.
[11] = Uromyces appendiculatus, 240 h, Table H2, read-out: Efficacy in % found
[12] = Phakopsora pachyrhizi, 168 h, read-out: Efficacy in % found
[13] = Table H1, application rate 0.25 ppm a.i.
[14] = Phakopsora pachyrhizi, 168 h, Table D1, application rate 0.5 ppm a.i., read-out: Efficacy in % found
[15] = Table A2, application rate 5 ppm a.i.

SMILES: Cn1cc(C(=O)Nc2cccc3c2[C@@H]2CC[C@H]3C2=C(Cl)Cl)c(C(F)F)n1 (racemic) [2.29, benzovindiflupyr]
- Efficacy in % found [1, 9]: 40%
- Efficacy in % found ([2]; application rate 40 ppm a.i.): 0%
- Efficacy in % found [3, 10]: 8%
- Efficacy in % found ([4]; application rate 40 ppm a.i.): 0%

SMILES: CC1(C)CCC(Cc2ccc(Cl)cc2)C1(O)Cn1cncn1 (centres unmarked) [1.30, metconazole]
- Efficacy in % found ([5]; application rate 40 ppm a.i.): 30%
- pest or weed control at 2 ppm [6, 11]: 30%

SMILES: OC(Cc1ccccc1Cl)(Cn1nc[nH]c1=S)C1(Cl)CC1 (centres unmarked) [1.41, prothioconazole]
- Efficacy in % found ([5]; application rate 80 ppm a.i.): 30%
- pest or weed control at 1 ppm [3, 12]: 60%
- pest or weed control at 2 ppm [6, 11]: 30%

SMILES: CC(C)(C)C(O)(CCc1ccc(Cl)cc1)Cn1cncn1 (centres unmarked) [1.47, tebuconazole]
- pest or weed control at 1 ppm [3, 12]: 50%
- Efficacy in % found ([7]; application rate 80 ppm a.i.): 14%

SMILES: Cn1cc(C(=O)Nc2ccc(F)cc2-c2ccc(Cl)c(Cl)c2)c(C(F)F)n1 [2.1, bixafen]
- Efficacy in % found [1, 9]: 43%
- Efficacy in % found [3, 10]: 0%
- Efficacy in % found ([4]; application rate 80 ppm a.i.): 86%
- Efficacy in % found [6, 13]: 30%
- Efficacy in % found ([8]; application rate 1 ppm a.i.): 36%

SMILES: O=C(NCCc1ncc(C(F)(F)F)cc1Cl)c1ccccc1C(F)(F)F [2.6, fluopyram]
- Efficacy in % found ([1]; Table A1, application rate 2 ppm a.i.): 34%
- Efficacy in % found ([2]; application rate 40 ppm a.i.): 0%
- pest or weed control at 2 ppm ([3]; Phakopsora pachyrhizi, 168 h, Table D1, application rate 2 ppm a.i., read-out: Efficacy in % found): 0%
- Efficacy in % found ([4]; application rate 40 ppm a.i.): 57%
- pest or weed control at 1 ppm ([6]; Uromyces appendiculatus, 240 h, Table H1, application rate 1 ppm a.i., read-out: Efficacy in % found): 15%

SMILES: Cn1cc(C(=O)Nc2ccccc2-c2cc(F)c(F)c(F)c2)c(C(F)F)n1 [2.8, fluxapyroxad]
- Efficacy in % found [1, 9]: 58%
- Efficacy in % found ([2]; application rate 40 ppm a.i.): 30%
- Efficacy in % found [3, 10]: 0%
- Efficacy in % found ([4]; application rate 80 ppm a.i.): 57%
- Efficacy in % found [6, 13]: 0%

SMILES: CC(C)CC(C)c1sccc1NC(=O)c1cn(C)nc1C(F)(F)F (centres unmarked) [2.21, penthiopyrad]
- Efficacy in % found [1, 9]: 27%
- Efficacy in % found ([2]; application rate 80 ppm a.i.): 20%
- pest or weed control at 0.5 ppm [3, 14]: 0%
- pest or weed control at 0.25 ppm ([6]; Uromyces appendiculatus, 240 h, Table H1, application rate 0.25 ppm a.i., read-out: Efficacy in % found): 30%

SMILES: CC1CC(C)(C)c2cccc(NC(=O)c3cn(C)nc3C(F)F)c21 (centres unmarked) [2.32, 3-(difluoromethyl)-1-methyl-N-(1,1,3-trimethyl-2,3-dihydro-1H-inden-4-yl)-1H-pyrazole-4-carboxamide]
- Efficacy in % found [1, 9]: 18%
- Efficacy in % found ([2]; application rate 80 ppm a.i.): 20%
- pest or weed control at 0.5 ppm [3, 12]: 15%
- Efficacy in % found ([4]; application rate 80 ppm a.i.): 0%
- pest or weed control at 0.25 ppm ([6]; Uromyces appendiculatus, 240 h, read-out: Efficacy in % found): 75%
- Efficacy in % found ([8]; application rate 1 ppm a.i.): 39%

SMILES: CO/C=C(/C(=O)OC)c1ccccc1Oc1cc(Oc2ccccc2C#N)ncn1 [3.3, azoxystrobin]
- Efficacy in % found [1, 15]: 35%
- Efficacy in % found ([3]; Table D3, application rate 0.5 ppm a.i.): 68%
- Efficacy in % found ([4]; application rate 20 ppm a.i.): 57%
- Efficacy in % found ([8]; application rate 0.5 ppm a.i.): 88%

SMILES: CO/N=C(/C1=NOCCO1)c1ccccc1Oc1ncnc(Oc2ccccc2Cl)c1F [3.12, fluoxastrobin]
- Efficacy in % found ([4]; application rate 20 ppm a.i.): 16%
- pest or weed control at 0.5 ppm ([6]; Uromyces appendiculatus, 240 h, Table H2, application rate 0.5 ppm a.i., read-out: Efficacy in % found): 65%
- Efficacy in % found ([8]; application rate 0.5 ppm a.i.): 30%

SMILES: CO/C=C(/C(=O)OC)c1ccccc1COc1cccc(C(F)(F)F)n1 [3.16, picoxystrobin]
- Efficacy in % found ([2]; application rate 40 ppm a.i.): 50%
- Efficacy in % found ([3]; Table D1, application rate 0.25 ppm a.i.): 8%
- Efficacy in % found ([4]; application rate 40 ppm a.i.): 71%
- Efficacy in % found ([6]; Table H2, application rate 2.5 ppm a.i.): 65%

SMILES: COC(=O)N(OC)c1ccccc1COc1ccn(-c2ccc(Cl)cc2)n1 [3.17, pyraclostrobin]
- Efficacy in % found ([1]; Table A1, application rate 1 ppm a.i.): 28%
- Efficacy in % found ([5]; application rate 20 ppm a.i.): 50%
- pest or weed control at 0.25 ppm ([3]; Phakopsora pachyrhizi, 168 h, Table D1, application rate 0.25 ppm a.i., read-out: Efficacy in % found): 0%
- Efficacy in % found ([7]; application rate 20 ppm a.i.): 0%
- Efficacy in % found ([8]; application rate 1 ppm a.i.): 23%

SMILES: CON=C(C(=O)OC)c1ccccc1CON=C(C)c1cccc(C(F)(F)F)c1 [3.22, trifloxystrobin]
- Efficacy in % found [1, 15]: 45%
- Efficacy in % found ([5]; application rate 20 ppm a.i.): 40%
- Efficacy in % found ([7]; application rate 20 ppm a.i.): 71%
- Efficacy in % found ([8]; application rate 0.25 ppm a.i.): 66%

SMILES: CC(C)c1ccc(Cl)cc1CN(C(=O)c1c(C(F)F)nn(C)c1F)C1CC1 [15.151, N-(5-chloro-2-isopropylbenzyl)-N-cyclopropyl-3-(difluoromethyl)-5-fluoro-1-methyl-1H-pyrazole-4-carboxamide]
- Efficacy in % found ([2]; application rate 20 ppm a.i.): 20%
- pest or weed control at 0.5 ppm [3, 14]: 0%
- Efficacy in % found ([4]; application rate 20 ppm a.i.): 86%
